According to publication PMC12473897 (Toxics, 2025):

System: T1, Coptodon zillii liver rhodanese
T1 construct: gene tst
Details: co-substrate KCN; standard assay borate pH 9.4, 37 °C; 5-50 mM range

`O=S(O)(O)=S` [sodium thiosulphate] was tested, and the Km was 20 mM.
